# Laboratory results from the supplement of paper PMC11451515.
# Tested on: SEM cells
# Assay: cell viability relative to DMSO control; higher = less cytotoxic
# Conditions: 48 h
# In short: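 Viability is expressed as a percentage of DMSO wells within each plate, and cell-free wells serve as background. Seeding densities in the 1536-well plates (5 μl) were 500 cells/well for NOMO1 or SEM leukemia cells and 1000 cells/well for P12-Ichikawa. Each line was adapted for at least four passages in each medium. Library compounds in DMSO were pin-dosed at 47 μM to 0.79 nM (11 points, threefold), and CellTiter-Glo One luminescence was read after 48 h at 37°C.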
# [1] = HPLM + 10% dialyzed FBS, 0.000781 µM
# [2] = HPLM + 10% dialyzed FBS, 0.00234 µM
# [3] = HPLM + 10% dialyzed FBS, 0.00702 µM
# [4] = HPLM + 10% dialyzed FBS, 0.0211 µM
# [5] = HPLM + 10% dialyzed FBS, 0.0632 µM
# [6] = HPLM + 10% dialyzed FBS, 0.19 µM
# [7] = HPLM + 10% dialyzed FBS, 0.569 µM
# [8] = HPLM + 10% dialyzed FBS, 1.71 µM
# [9] = HPLM + 10% dialyzed FBS, 5.12 µM
# [10] = HPLM + 10% dialyzed FBS, 15.4 µM
# [11] = HPLM + 10% dialyzed FBS, 46.1 µM
# [12] = RPMI 5 mM glucose + 10% FBS, 0.000781 µM
# [13] = RPMI 5 mM glucose + 10% FBS, 0.00234 µM
# [14] = RPMI 5 mM glucose + 10% FBS, 0.00702 µM
# [15] = RPMI 5 mM glucose + 10% FBS, 0.0211 µM
# [16] = RPMI 5 mM glucose + 10% FBS, 0.0632 µM
# [17] = RPMI 5 mM glucose + 10% FBS, 0.19 µM
# [18] = RPMI 5 mM glucose + 10% FBS, 0.569 µM
# [19] = RPMI 5 mM glucose + 10% FBS, 1.71 µM
# [20] = RPMI 5 mM glucose + 10% FBS, 5.12 µM
# [21] = RPMI 5 mM glucose + 10% FBS, 15.4 µM
# [22] = RPMI 5 mM glucose + 10% FBS, 46.1 µM
# [23] = RPMI 5 mM glucose + 10% dialyzed FBS, 0.000781 µM
# [24] = RPMI 5 mM glucose + 10% dialyzed FBS, 0.00234 µM
# [25] = RPMI 5 mM glucose + 10% dialyzed FBS, 0.00702 µM
# [26] = RPMI 5 mM glucose + 10% dialyzed FBS, 0.0211 µM
# [27] = RPMI 5 mM glucose + 10% dialyzed FBS, 0.0632 µM
# [28] = RPMI 5 mM glucose + 10% dialyzed FBS, 0.19 µM
# [29] = RPMI 5 mM glucose + 10% dialyzed FBS, 0.569 µM
# [30] = RPMI 5 mM glucose + 10% dialyzed FBS, 1.71 µM
# [31] = RPMI 5 mM glucose + 10% dialyzed FBS, 5.12 µM
# [32] = RPMI 5 mM glucose + 10% dialyzed FBS, 15.4 µM
# [33] = RPMI 5 mM glucose + 10% dialyzed FBS, 46.1 µM
SMILES,cell viability [1],cell viability [2],cell viability [3],cell viability [4],cell viability [5],cell viability [6],cell viability [7],cell viability [8],cell viability [9],cell viability [10],cell viability [11],cell viability [12],cell viability [13],cell viability [14],cell viability [15],cell viability [16],cell viability [17],cell viability [18],cell viability [19],cell viability [20],cell viability [21],cell viability [22],cell viability [23],cell viability [24],cell viability [25],cell viability [26],cell viability [27],cell viability [28],cell viability [29],cell viability [30],cell viability [31],cell viability [32],cell viability [33]
O=C(O)c1ccc(-n2nc(-c3ccccc3O)nc2-c2ccccc2O)cc1,86.4%,93%,85.3%,92%,90.9%,94.6%,96.4%,98%,101%,82.1%,43%,80.7%,76.6%,86.7%,86.8%,100%,96.9%,93.3%,93.7%,108%,66%,24.9%,77.6%,76%,91%,98.1%,95.5%,108%,102%,102%,99.1%,58.8%,19.4%
C1CCC(C(CC2CCCCN2)C2CCCCC2)CC1 (stereo not given),82.6%,92.2%,94.9%,98.3%,104%,110%,93.5%,96.9%,118%,54.1%,7.7%,94.4%,122%,93%,113%,116%,117%,110%,112%,111%,45.1%,19.6%,85.7%,93.9%,91.7%,85.5%,100%,86.6%,96.8%,110%,89.9%,37.7%,34%
CC[C@H]1/C=C\C=C/C[C@@H](C)[C@H](O)[C@@](C)(O)C(=O)[C@@H](C)[C@H](O)[C@@H](C)C(=O)[C@@H](C)[C@H](O)[C@@H](C)/C=C/C(=O)O[C@@H]2[C@H](C)[C@H](CC1)O[C@]1(CC[C@H](C)[C@H](C[C@@H](C)O)O1)[C@H]2C,78.7%,94.1%,105%,84.3%,86.4%,98.6%,95.5%,63.4%,40.9%,56.5%,7.57%,81.1%,93.9%,92.5%,81.2%,90.3%,105%,97.7%,58.2%,28.8%,34.6%,7.26%,90.9%,97%,89%,97.4%,85.8%,94.2%,100%,54.7%,43.2%,36.4%,8.78%
C\C1=C\C(=O)C2=C(C=CC=C2)C1=O,95.9%,110%,102%,109%,126%,123%,106%,114%,111%,96.1%,80.4%,104%,101%,113%,111%,113%,106%,101%,89.2%,95.3%,95.9%,59.9%,94.7%,102%,114%,114%,112%,111%,117%,111%,84.3%,71.3%,50.6%
CCCCNc1cc(C(=O)O)cc([S+](N)(=O)[O-])c1Oc1ccccc1,80.3%,97.7%,100%,101%,103%,95.8%,99.9%,107%,115%,116%,118%,111%,110%,117%,114%,111%,109%,107%,112%,116%,141%,111%,108%,110%,109%,113%,115%,126%,107%,123%,135%,120%,128%
CC(C)Oc1cc(Nc2nc(N[C@@H](C)c3ccc(F)cn3)ncc2Cl)n[nH]1,106%,103%,90.3%,102%,96.3%,80.5%,50.5%,34.6%,26%,22.1%,25.3%,109%,83.1%,96%,95.6%,108%,81.2%,60.3%,21.9%,19.2%,14.8%,16.2%,84.9%,98%,100%,114%,83%,67.9%,43.4%,26.3%,17.9%,14.9%,16.2%
CC(=O)N1CCN(c2ccc(OC[C@H]3CO[C@](Cn4ccnc4)(c4ccc(Cl)cc4Cl)O3)cc2)CC1,98.3%,97.8%,104%,95.2%,107%,26.4%,90.9%,92.8%,21.5%,87.1%,86.4%,124%,136%,121%,125%,134%,28%,113%,104%,14.1%,90.5%,48.5%,–,–,–,–,–,–,–,–,–,–,–
